# What was measured:
# [1] = system: PBMCs from asymptomatic HLA-A*02:01 Chagas disease patients; test: HLA-A*02:01 restriction assay: peptide-pulsed K562-A2 cells as APC, IFN-γ secretion by patient PBMC; format: cell-based, human; details: range among patients with a positive response; K562-A2 pulsed with 1 mM peptide 1 h, 30 h co-culture; K562 level subtracted
# Protocol: TAP-deficient T2 cells were used for the HLA-A*02:01 binding assays and the K562-A2 cells for the HLA-A*02:01 restriction assay. The cells were cultured in complete RPMI medium supplemented with 10% of inactivated Fetal Calf Serum (iFCS), 2 mM glutamine, and 100 U/ml penicillin. K562-A2 cells, expressing the HLA-A*02:01 molecule were cultured in the presence of […] of G-418, as previously described. The T2 and K562-A2 cells were kindly provided by Dr. Pedro Romero (University of Lausanne) and by Dr Peter Ponsaerts (University of Antwerp, with the permission of Dr. Cedrik Britten from Johanes Gutenberg-University Mainz), respectively.
# (§1) For the screening of the recognition of TcCA-2 epitopes by Chagas disease patients, 10 HLA-A*02:01 adult patients in the asymptomatic phase of the disease (IND) were enrolled. For cytotoxicity, functional activity determinations and phenotypic characterization another group of 19 HLA-A*02:01 adults Chagas disease patients and 9 healthy donors were analyzed. These patients were at the chronic stage of the disease and were considered to be at the asymptomatic phase (IND, n = 8) if there was no evidence of having cardiac or gastrointestinal disorders. Chronic Chagas cardiomyopathy patients (CCC, n = 11) were stratified into G1 to G3 stages following Kuschnir classification according to clinical criteria and radiological, electrocardiographic and echocardiography analyses. The number of patients was the one recommended by the Hospital Ethical Committee. […] The patients were enrolled in both studies (functional and phenotypic characterization, IND n = 6 and CCC n = 7) when the available number of purified PBMC (limited by the cellular number isolated from each subject) was enough for both analyses. Another four CCC patients had to be enrolled to perform the phenotypic analysis in order to reach statistical significance.
# Cytokine secretion (IL-4, IL-10, IL-6, IFN-γ, TNF-α) was determined in the supernatants of PBMC from Chagas disease patients and healthy donors, after in vitro stimulation with 1 μM of each peptide for 30 h at 37°C in RPMI supplemented with 10% iFBS as explained before. The secretion profile was determined by using a bead-based multiplex immunoassay system (Bio-Plex, Bio-Rad), following the manufacturer's instructions. The response was considered positive if an increase in the secretion of cytokines was at least three folds higher than the secretion by un-stimulated cells (basal secretion level) and at least, 4 pg/mL for IL-4, 2 pg/mL for IL-10, 15 pg/mL for IL-6 and 5 pg/mL for IFN-γ and TNF-α. The positive control consisted of 50 ng/mL Phorbol 12 myristate 13-acetate (PMA) and 500 ng/mL ionomycin (Sigma). Cytokine levels were quantified in each sample by using the Bio-Plex Manager software 4.1 (Bio-Rad). […]
# [2] = system: PBMC from HLA-A*02:01 Chagas disease patients and healthy donors; test: Cytokine secretion test (Bio-Plex multiplex immunoassay) in PBMC supernatants; format: cell-based, human; details: 1 μM peptide, 30 h; for IFNγ / IL6 / TNFα: non-peptide control subtracted
# Protocol: as §1
# Cytokine secretion (IL-4, IL-10, IL-6, IFN-γ, TNF-α) was determined in the supernatants of PBMC from Chagas disease patients and healthy donors, after in vitro stimulation with 1 μM of each peptide for 30 h at 37°C in RPMI supplemented with 10% iFBS as explained before. The secretion profile was determined by using a bead-based multiplex immunoassay system (Bio-Plex, Bio-Rad), following the manufacturer's instructions. The response was considered positive if an increase in the secretion of cytokines was at least three folds higher than the secretion by un-stimulated cells (basal secretion level) and at least, 4 pg/mL for IL-4, 2 pg/mL for IL-10, 15 pg/mL for IL-6 and 5 pg/mL for IFN-γ and TNF-α. The positive control consisted of 50 ng/mL Phorbol 12 myristate 13-acetate (PMA) and 500 ng/mL ionomycin (Sigma). Cytokine levels were quantified in each sample by using the Bio-Plex Manager software 4.1 (Bio-Rad).
# Functional analysis of the epitope-specific CD8^+ T cells was carried out by the determination of the secretion profile of IFN-γ, TNF-α, IL-4, IL10 and IL-6 cytokines. […] CD8^+ T cells from 2 out of 11 patients responded to stimulation with peptide TcCA-2_273-281 by secreting IL-6. […] There was no secretion of IL-4 and IL-10 in PBMC after stimulation with any one of the four TcCA-2 peptides (data not shown). IFN-γ, TNF-α and IL6 cytokines secretion levels were higher in patients at the asymptomatic phase of the disease than in Chagas patients with associated cardiomyopathy.
sequence,measurement,setting,value
TVFDASRSTV [TcCA-2_442-451],INF-γ secretion range,[1],5.8 to 6.9 pg/mL
same,"Patients whose cells recognized the peptide by secreting IFN-γ, TNF-α and IL-6","[2]; PBMC of Chagas patients, positive = at least three folds non-peptide control and ≥15 pg/mL IL-6, ≥5 pg/mL IFN-γ and TNF-α",2 out of 14
same,Patients whose cells recognized the peptide by secreting TNF-α and IL-6,"[2]; PBMC of Chagas patients, same positivity criteria",2 out of 14
same,IFNγ,[2]; PBMC of patient CCC I 456,4 pg/mL
same,IL6,[2]; PBMC of patient CCC I 456,46 pg/mL
same,TNFα,[2]; PBMC of patient CCC I 456,6 pg/mL
same,IFNγ,[2]; PBMC of patient CCC I 770,-2 pg/mL
same,IL6,[2]; PBMC of patient CCC I 770,3 pg/mL
same,TNFα,[2]; PBMC of patient CCC I 770,-11 pg/mL
same,IFNγ,[2]; PBMC of patient CCC I 861,0 pg/mL
same,IL6,[2]; PBMC of patient CCC I 861,-4 pg/mL
same,TNFα,[2]; PBMC of patient CCC I 861,-3 pg/mL
same,IFNγ,[2]; PBMC of patient CCC I 884,0 pg/mL
same,IL6,[2]; PBMC of patient CCC I 884,0 pg/mL
same,TNFα,[2]; PBMC of patient CCC I 884,0 pg/mL
same,IFNγ,[2]; PBMC of patient CCC II 142,2 pg/mL
same,IL6,[2]; PBMC of patient CCC II 142,-3 pg/mL
same,TNFα,[2]; PBMC of patient CCC II 142,-20 pg/mL
same,IFNγ,[2]; PBMC of patient CCC III 509,0 pg/mL
same,IL6,[2]; PBMC of patient CCC III 509,-4 pg/mL
same,TNFα,[2]; PBMC of patient CCC III 509,-5 pg/mL
same,IFNγ,[2]; PBMC of patient CCC III 797,3 pg/mL
same,IL6,[2]; PBMC of patient CCC III 797,31 pg/mL
same,TNFα,[2]; PBMC of patient CCC III 797,7 pg/mL
same,IFNγ,[2]; PBMC of patient IND 265,204 pg/mL
same,IL6,[2]; PBMC of patient IND 265,1641 pg/mL
same,TNFα,[2]; PBMC of patient IND 265,160 pg/mL
same,IFNγ,[2]; PBMC of patient IND 283,12 pg/mL
same,IL6,[2]; PBMC of patient IND 283,80 pg/mL
same,TNFα,[2]; PBMC of patient IND 283,35 pg/mL
same,IFNγ,[2]; PBMC of patient IND 365,0 pg/mL
same,IL6,[2]; PBMC of patient IND 365,7 pg/mL
same,TNFα,[2]; PBMC of patient IND 365,15 pg/mL
same,IFNγ,[2]; PBMC of patient IND 388,1 pg/mL
same,IL6,[2]; PBMC of patient IND 388,21 pg/mL
same,TNFα,[2]; PBMC of patient IND 388,-10 pg/mL
same,IFNγ,[2]; PBMC of patient IND 510,0 pg/mL
same,IL6,[2]; PBMC of patient IND 510,1 pg/mL
same,TNFα,[2]; PBMC of patient IND 510,1 pg/mL
same,IFNγ,[2]; PBMC of patient IND 535,0 pg/mL
same,IL6,[2]; PBMC of patient IND 535,-6 pg/mL
same,TNFα,[2]; PBMC of patient IND 535,-1 pg/mL
same,IFNγ,[2]; PBMC of patient IND 917,-1 pg/mL
same,IL6,[2]; PBMC of patient IND 917,-13 pg/mL
same,TNFα,[2]; PBMC of patient IND 917,-4 pg/mL
same,IFNγ,[2]; PBMC of subject HD 001,4 pg/mL
same,IL6,[2]; PBMC of subject HD 001,18 pg/mL
same,TNFα,[2]; PBMC of subject HD 001,-6 pg/mL
same,IFNγ,[2]; PBMC of subject HD 004,0 pg/mL
same,IL6,[2]; PBMC of subject HD 004,-15 pg/mL
same,TNFα,[2]; PBMC of subject HD 004,-1 pg/mL
same,IFNγ,[2]; PBMC of subject HD 005,5 pg/mL
same,IL6,[2]; PBMC of subject HD 005,16 pg/mL
same,TNFα,[2]; PBMC of subject HD 005,-1 pg/mL
same,IFNγ,[2]; PBMC of subject HD 006,2 pg/mL
same,IL6,[2]; PBMC of subject HD 006,-2 pg/mL
same,TNFα,[2]; PBMC of subject HD 006,2 pg/mL
same,IFNγ,[2]; PBMC of subject HD 008,1 pg/mL
same,IL6,[2]; PBMC of subject HD 008,31 pg/mL
same,TNFα,[2]; PBMC of subject HD 008,15 pg/mL
same,IFNγ,[2]; PBMC of subject HD 011,8 pg/mL
same,IL6,[2]; PBMC of subject HD 011,54 pg/mL
same,TNFα,[2]; PBMC of subject HD 011,10 pg/mL
same,IFNγ,[2]; PBMC of subject HD 340,2 pg/mL
same,IL6,[2]; PBMC of subject HD 340,11 pg/mL
same,TNFα,[2]; PBMC of subject HD 340,3 pg/mL
same,IFNγ,[2]; PBMC of subject HD 664,-3 pg/mL
same,IL6,[2]; PBMC of subject HD 664,0 pg/mL
same,TNFα,[2]; PBMC of subject HD 664,0 pg/mL
